Experimental findings from ChEMBL document CHEMBL1201862, “PubChem BioAssay data set” (2004) are described below.

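Protocol summary: plate cells (96-well), add compound at 5 concentrations, incubate 48 h, interpolate endpoints linearly. GI50 = concentration required for 50% inhibition of growth.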 Active and inactive are the calls of the source. Cut-off read from the data, not from the text of the source: active = GI50 up to about 1.1 µM and inactive = higher. A value given as a limit tells only on which side of the number the result lay.

Among the test systems are A498; ACHN; CCRF-CEM; HOP-62; IGROV-1; K562; LOX IMVI; Malme-3M; NCI-H226; NCI-H522; RXF 393; SF-268; SN12C; SW-620; U-251; SK-MEL-5; RPMI-8226; MCF7.
Holding throughout (test): NCI tumour cell line growth inhibition, 48 h

As for `CC1(C)OC(C(N)=O)=C(C(N)=O)O1`, the GI50 in the experiment with A498, with ACHN, with CCRF-CEM, in the experiment on HOP-62, in the experiment with IGROV-1 and in the experiment with K562 was > 100 µM (inactive) throughout. The GI50 in the experiment on LOX IMVI, with Malme-3M, with NCI-H226, with NCI-H522, in the experiment with RXF 393 and in the experiment on SF-268 was > 100 µM (inactive) in each case. The GI50 with SN12C, with SW-620 and in the experiment on U-251 was > 100 µM (inactive) throughout.

In the case of `Cc1ccc(/C=C/C(=O)c2ccc([N+](=O)[O-])cc2)cc1`, the GI50 with A498 was 0.815 µM (active); with ACHN, > 100 µM (inactive); in the experiment on CCRF-CEM, > 100 µM (inactive); in the experiment on HOP-62, > 100 µM (inactive); with IGROV-1 it was > 100 µM (inactive); in the experiment on K562, > 100 µM (inactive). In addition, the GI50 is > 100 µM (inactive) in the experiment with LOX IMVI; > 100 µM (inactive) in the experiment on Malme-3M; > 100 µM (inactive) in the experiment on NCI-H226; 56.4 µM (inactive) in the experiment with NCI-H522; > 100 µM (inactive) in the experiment with RXF 393; > 100 µM (inactive) in the experiment with SF-268. Also, the GI50 is > 100 µM (inactive) with SK-MEL-5, > 100 µM (inactive) in the experiment with SN12C, > 100 µM (inactive) in the experiment on SW-620 and 21.2 µM (inactive) in the experiment on U-251.

For `COC(=O)C1CC2(c3ccccc3)C(=O)c3ccccc3N2O1` (stereo not drawn), the GI50 with A498 is > 100 µM (inactive); in the experiment on ACHN, 49.2 µM (inactive); with CCRF-CEM, 30.3 µM (inactive); in the experiment with HOP-62 it was 71.3 µM (inactive); in the experiment on IGROV-1, > 100 µM (inactive); with K562, 31.8 µM (inactive). Moreover, the GI50 with LOX IMVI is 26.1 µM (inactive); in the experiment with Malme-3M, > 100 µM (inactive); with NCI-H226 it was > 100 µM (inactive); in the experiment on NCI-H522, 15.5 µM (inactive); in the experiment with RPMI-8226, 17.7 µM (inactive); in the experiment with SF-268 it was > 100 µM (inactive). Also, the GI50 was 74.8 µM (inactive) in the experiment on SK-MEL-5, 43 µM (inactive) with SN12C, 39.3 µM (inactive) with SW-620 and 69.2 µM (inactive) with U-251.

`O=c1ccc2ccccc2o1` [COUMARIN]: the GI50 in the experiment on A498, in the experiment on ACHN, with CCRF-CEM, in the experiment on HOP-62, with IGROV-1 and in the experiment with K562 was > 100 µM (inactive) throughout. Also, the GI50 in the experiment on LOX IMVI, in the experiment with Malme-3M, in the experiment on NCI-H226, in the experiment on NCI-H522, in the experiment on RPMI-8226 and in the experiment with RXF 393 was > 100 µM (inactive) each time. Also, the GI50 with SF-268, with SN12C, in the experiment on SW-620 and in the experiment with U-251 was > 100 µM (inactive) throughout.

Regarding `COc1ccc(NC(=O)CSc2nnc(Cc3ccccc3)o2)cc1`, the GI50 is > 100 µM (inactive) in the experiment on A498; > 100 µM (inactive) in the experiment on ACHN; 82.2 µM (inactive) in the experiment with CCRF-CEM; > 100 µM (inactive) with HOP-62; > 100 µM (inactive) in the experiment on IGROV-1; > 100 µM (inactive) in the experiment on K562. In addition, the GI50 is 53.5 µM (inactive) in the experiment with LOX IMVI; > 100 µM (inactive) in the experiment with Malme-3M; > 100 µM (inactive) in the experiment with NCI-H226; 53.7 µM (inactive) in the experiment with NCI-H522; 41.4 µM (inactive) in the experiment on RPMI-8226; > 100 µM (inactive) in the experiment with RXF 393. In addition, the GI50 in the experiment on SF-268 was 88.1 µM (inactive); with SK-MEL-5 it was 85.1 µM (inactive); in the experiment on SN12C, > 100 µM (inactive); in the experiment with SW-620 it was > 100 µM (inactive); in the experiment with U-251, 34.5 µM (inactive).

In the case of `C=CCNC(=O)C(C)C1CCC2(C)C=CC(=O)C(C)=C2C1O` (stereo not drawn), the GI50 in the experiment on A498, in the experiment on CCRF-CEM, in the experiment with HOP-62, with IGROV-1, in the experiment on K562 and in the experiment with LOX IMVI was > 100 µM (inactive) each time. The GI50 with MCF7, in the experiment with NCI-H226, in the experiment with NCI-H522, in the experiment with RPMI-8226, in the experiment with RXF 393 and with SF-268 was > 100 µM (inactive) in each case. Besides, the GI50 in the experiment with SK-MEL-5, in the experiment with SN12C, in the experiment with SW-620 and in the experiment with U-251 was > 100 µM (inactive) in each case.

As to `COC(=O)C1=C(C(=O)OC)SC(=C(/N=N/c2ccccc2)c2ccccc2)S1`, the GI50 is > 100 µM (inactive) in the experiment on A498; 80.9 µM (inactive) in the experiment with ACHN; > 100 µM (inactive) in the experiment with CCRF-CEM; > 100 µM (inactive) in the experiment on HOP-62; > 100 µM (inactive) in the experiment with IGROV-1; > 100 µM (inactive) in the experiment with K562. The GI50 in the experiment on LOX IMVI is > 100 µM (inactive); with Malme-3M it was > 100 µM (inactive); with NCI-H226, > 100 µM (inactive); in the experiment on NCI-H522, 83.6 µM (inactive); in the experiment on RPMI-8226, > 100 µM (inactive); in the experiment with SF-268, > 100 µM (inactive). For the same compound, the GI50 in the experiment with SK-MEL-5, in the experiment on SN12C, with SW-620 and in the experiment on U-251 was > 100 µM (inactive) each time.

For `CCOC(=O)/C(C#N)=C(N)/C(=N\Nc1cccc(C(F)(F)F)c1)C(=O)OCC`, the GI50 in the experiment on A498, in the experiment on ACHN, in the experiment with CCRF-CEM, in the experiment on HOP-62, in the experiment on IGROV-1 and in the experiment on LOX IMVI was > 100 µM (inactive) in each case. The GI50 with Malme-3M, in the experiment with NCI-H226, in the experiment with NCI-H522, in the experiment with RPMI-8226, in the experiment with SF-268 and in the experiment with SK-MEL-5 was > 100 µM (inactive) each time. Also, the GI50 with SN12C, in the experiment with SW-620 and in the experiment with U-251 was > 100 µM (inactive) in each case.

On to `O=P(c1ccccc1)(c1ccccc1)C1CC=C(c2ccccc2)C2(CCCC2)C1` (stereo not drawn), for which the GI50 in the experiment on A498 was 74.8 µM (inactive); in the experiment on CCRF-CEM, 33.1 µM (inactive); in the experiment with IGROV-1, 42.7 µM (inactive); in the experiment on K562, 31.4 µM (inactive); in the experiment on LOX IMVI it was 31.3 µM (inactive); in the experiment with Malme-3M, 34.8 µM (inactive). Further, the GI50 with NCI-H226 was 44.9 µM (inactive); in the experiment with NCI-H522 it was 8.79 µM (inactive); in the experiment on RPMI-8226, 20.5 µM (inactive); in the experiment on RXF 393, 9.23 µM (inactive); in the experiment on SF-268 it was 90.4 µM (inactive); with SK-MEL-5, 71.8 µM (inactive). Also, the GI50 with SN12C is 59.7 µM (inactive); with SW-620 it was 81.3 µM (inactive); in the experiment with U-251, 94 µM (inactive).

For the compound `Cc1ccc(NC(=O)/C(CC(=O)c2c[n+]([O-])c3ccccc3[n+]2[O-])=N\NC(=O)C[n+]2ccccc2)cc1`, the GI50 is > 100 µM (inactive) with A498; > 100 µM (inactive) with ACHN; > 100 µM (inactive) with CCRF-CEM; > 100 µM (inactive) in the experiment with HOP-62; > 100 µM (inactive) in the experiment on IGROV-1; 48.6 µM (inactive) in the experiment on K562. Also, the GI50 in the experiment with LOX IMVI, with Malme-3M, in the experiment with NCI-H226, with NCI-H522, in the experiment on RPMI-8226 and with RXF 393 was > 100 µM (inactive) each time. The GI50 in the experiment with SF-268, in the experiment on SK-MEL-5, with SN12C, in the experiment on SW-620 and in the experiment on U-251 was > 100 µM (inactive) throughout.

For `c1c(N2CCOCC2)s[s+]c1N1CCOCC1`, the GI50 with A498, with ACHN, in the experiment on CCRF-CEM, with HOP-62, with IGROV-1 and in the experiment on K562 was > 100 µM (inactive) throughout. In addition, the GI50 in the experiment on LOX IMVI was > 100 µM (inactive); in the experiment with Malme-3M, > 100 µM (inactive); in the experiment on NCI-H226, 13.3 µM (inactive); in the experiment on NCI-H522, > 100 µM (inactive); in the experiment with RPMI-8226, > 100 µM (inactive); in the experiment with RXF 393, > 100 µM (inactive). Moreover, the GI50 with SF-268, in the experiment with SK-MEL-5, in the experiment on SN12C, in the experiment with SW-620 and in the experiment with U-251 was > 100 µM (inactive) each time.

Turning to `CCOC(=O)Nc1ccc(S(=O)(=O)OC)cc1.CCOC(=O)Nc1ccc(S(=O)(=O)OC)cc1.NC(=O)NCCO`, the GI50 in the experiment with A498 is > 50 µM (inactive); in the experiment on ACHN, > 50 µM (inactive); in the experiment on CCRF-CEM, 23.3 µM (inactive); with HOP-62, 23.6 µM (inactive); in the experiment with IGROV-1 it was > 50 µM (inactive); with K562 it was 16.1 µM (inactive). In addition, the GI50 in the experiment with LOX IMVI is 21.3 µM (inactive); in the experiment on Malme-3M, > 50 µM (inactive); in the experiment on NCI-H226, > 50 µM (inactive); with NCI-H522 it was > 50 µM (inactive); in the experiment on RPMI-8226 it was 17.1 µM (inactive); with RXF 393 it was > 50 µM (inactive). The GI50 with SF-268 was > 50 µM (inactive); in the experiment with SK-MEL-5 it was > 50 µM (inactive); in the experiment with SN12C, > 50 µM (inactive); in the experiment with SW-620, 28.8 µM (inactive); in the experiment on U-251 it was 23 µM (inactive).
